Experimental data published in ChEMBL document CHEMBL5338746, “New Generation of sGC Stimulators: Discovery of Imidazo[1,2-a]pyridine Carboxamide BAY 1165747 (BAY-747), a Long-Acting Soluble Guanylate Cyclase Stimulator for the Treatment of Resistant Hypertension” (J Med Chem, 2023).
Each block holds one molecule with its values, some of them ahead of it. Calls of active or inactive are those of the source. The rule behind the calls is not given here.

Columns and labels:
[1] = biological target: Soluble guanylate cyclase alpha1/beta1 complex (Rattus norvegicus) (UniProt P19686+P20595); test: Stimulation of recombinant rat sGC alpha1/beta1 expressed in CHO cells assessed as formation of cGMP from GTP by measuring concentration for >3-fold increase in the basal luminescence value by luminescence based analysis; assay type: cell-based; details: filed as activator
[2] = Metabolic stability in rat hepatocytes assessed as clearance measured upto 90 mins by LC-MS/MS analysis; assay type: ADME, cell-based, Hepatocyte
Aorta = test: Vasorelaxant activity in New Zealand White rabbits aortic rings assessed as reduction in phenylephrine-induced contraction measured after 30 mins; assay type: functional, tissue-based; details: Oryctolagus cuniculus, 0.5 h
Rattus norvegicus [3] = test: Antihypertensive activity in spontaneous hypertensive Wistar rat assessed as decrease in systolic blood pressure iv administered as bolus injection measured for 21 days by tail-cuff method; assay type: functional, organism-based; details: dose 0.3-3 mg/kg, time 21.0 day
Rattus norvegicus [4] = test: Antihypertensive activity in spontaneous hypertensive Wistar rat assessed as decrease in systolic blood pressure at 0.3 mg/kg, iv administered as bolus injection measured for 21 days by tail-cuff method; assay type: functional; details: time 21 day
Rattus norvegicus [5] = test: Antihypertensive activity in spontaneous hypertensive Wistar rat assessed as decrease in systolic blood pressure at 1 mg/kg, iv administered as bolus injection measured for 21 days by tail-cuff method; assay type: functional; details: time 21 day
Rattus norvegicus [6] = test: Antihypertensive activity in spontaneous hypertensive Wistar rat assessed as decrease in systolic blood pressure at 3 mg/kg, iv administered as bolus injection measured for 21 days by tail-cuff method; assay type: functional; details: time 21 day
Rattus norvegicus [7] = test: Hypotensive effect in conscious normotensive Wistar rat assessed as reduction in arterial blood pressure administered orally for 21 days by tail-cuff method; assay type: functional, organism-based; details: dose 0.3-1 mg/kg, route po, time 21.0 day
Rattus norvegicus [8] = test: Hypotensive effect in conscious normotensive Wistar rat assessed as reduction in arterial blood pressure at 3 mg/kg, po administered for 21 days by tail-cuff method relative to control; assay type: functional; set-up: scale not given: the % may be the effect or the level left; details: time 21 day
Rattus norvegicus [9] = test: Hypotensive effect in conscious normotensive Wistar rat assessed as reduction in arterial blood pressure at 10 mg/kg, po administered for 21 days by tail-cuff method relative to control; assay type: functional; set-up: scale not given: the % may be the effect or the level left; details: time 21 day
Rattus norvegicus [10] = test: Antihypertensive activity in conscious normotensive Wistar rat model assessed as increase in heart rate at 10 mg/kg, po measured after 14 hrs by radiotelemetry; assay type: functional, organism-based
Rattus norvegicus [11] = test: Antihypertensive activity in conscious normotensive Wistar rat model assessed as increase in heart rate at 3 mg/kg, po measured after 14 hrs by radiotelemetry; assay type: functional, organism-based
Rattus norvegicus [12] = test: Antihypertensive activity in spontaneous hypertensive Wistar rat model assessed as reduction in blood pressure po administered bolus injection by radiotelemetry analysis; assay type: functional, organism-based; details: dose 0.3 mg/kg
Rattus norvegicus [13] = test: Antihypertensive activity in spontaneous hypertensive Wistar rat model assessed as reduction in blood pressure at 3 mg/kg, po measured after 12 hrs by radiotelemetry analysis; assay type: functional, organism-based
Rattus norvegicus [14] = test: Antihypertensive activity in spontaneous hypertensive Wistar rat model assessed as reduction in blood pressure at 10 mg/kg, po measured after 12 hrs by radiotelemetry analysis; assay type: functional; set-up: scale not given: the % may be the effect or the level left
Rattus norvegicus [15] = test: Antihypertensive activity against L-NAME treated renin transgenic Wistar rat cardiovascular disease model assessed as body weight gain at 0.3 mg/kg administered via oral gavage once daily for 21 days; assay type: functional, organism-based; details: time 21.0 day
Rattus norvegicus [16] = test: Antihypertensive activity against L-NAME treated renin transgenic Wistar rat cardiovascular disease model assessed as reduction in mortality rate at 0.3 mg/kg administered via oral gavage once daily for 21 days; assay type: functional, organism-based; details: time 21.0 day
Rattus norvegicus [17] = test: Antihypertensive activity against L-NAME treated renin transgenic Wistar rat cardiovascular disease model assessed as reduction in mortality rate at 3 mg/kg administered via oral gavage once daily for 21 days; assay type: functional, organism-based; details: time 21.0 day
Rattus norvegicus [18] = test: Anti-hypertensive activity against L-NAME treated renin transgenic Wistar rat cardiovascular disease model assessed as increase in plasma cGMP level at 0.3 mg/kg administered once daily via oral gavage upto 21 days (reference value: 572+/-350 pmol/mL); assay type: functional; details: time <= 21 day
Rattus norvegicus [19] = test: Anti-hypertensive activity against L-NAME treated renin transgenic Wistar rat cardiovascular disease model assessed as increase in plasma cGMP level at 3 mg/kg administered once daily via oral gavage upto 21 days (reference value: 572+/-350 pmol/mL); assay type: functional; details: time <= 21 day
Rattus norvegicus [20] = test: Anti-hypertensive activity against L-NAME treated renin transgenic Wistar rat cardiovascular disease model assessed as change in heart to body weight at 0.3 mg/kg administered once daily via oral gavage upto 21 days (reference value: 4.64+/-0.3 g/Kg); assay type: functional; details: time <= 21 day
Rattus norvegicus [21] = test: Anti-hypertensive activity against L-NAME treated renin transgenic Wistar rat cardiovascular disease model assessed as change in heart to body weight at 3 mg/kg administered once daily via oral gavage upto 21 days (reference value: 4.64+/-0.3 g/Kg); assay type: functional; details: time <= 21 day
Rattus norvegicus [22] = test: Anti-hypertensive activity against L-NAME treated renin transgenic Wistar rat cardiovascular disease model assessed as reduction in plasma BNP level at 0.3 mg/kg administered once daily via oral gavage upto 21 days (reference value: 403+/-325 pg/ml); assay type: functional; details: time <= 21 day
Rattus norvegicus [23] = test: Anti-hypertensive activity against L-NAME treated renin transgenic Wistar rat cardiovascular disease model assessed as reduction in plasma BNP level at 3 mg/kg administered once daily via oral gavage upto 21 days (reference value: 403+/-325 pg/ml); assay type: functional; details: time <= 21 day
Rattus norvegicus [24] = test: Anti-hypertensive activity against L-NAME treated renin transgenic Wistar rat cardiovascular disease model assessed as change in kidney to body weight at 0.3 mg/kg administered once daily via oral gavage upto 21 days (reference value: 3.79 +/- 0.1 g/kg); assay type: functional; details: time <= 21 day
Rattus norvegicus [25] = test: Anti-hypertensive activity against L-NAME treated renin transgenic Wistar rat cardiovascular disease model assessed as change in kidney to body weight at 3 mg/kg administered once daily via oral gavage upto 21 days (reference value: 3.79 +/- 0.1 g/kg); assay type: functional; details: time <= 21 day
Rattus norvegicus [26] = test: Anti-hypertensive activity against L-NAME treated renin transgenic Wistar rat cardiovascular disease model assessed as increase in survival at 0.3 mg/kg administered once daily via oral gavage upto 21 days (reference value: 21%); assay type: functional; details: time <= 21 day
Rattus norvegicus [27] = test: Anti-hypertensive activity against L-NAME treated renin transgenic Wistar rat cardiovascular disease model assessed as increase in survival at 3 mg/kg administered once daily via oral gavage upto 21 days (reference value: 21%); assay type: functional; details: time <= 21 day
Rattus norvegicus [28] = test: Antihypertensive activity against L-NAME treated renin transgenic Wistar rat cardiovascular disease model assessed as reduction in blood pressure at 3 mg/kg administered via oral gavage once daily for 28 days; assay type: functional, organism-based; details: time 28.0 day
Rattus norvegicus [29] = test: Antihypertensive activity against L-NAME treated renin transgenic Wistar rat cardiovascular disease model assessed as reduction in blood pressure at 0.3 mg/kg administered via oral gavage once daily for 28 days; assay type: functional, organism-based; details: time 28.0 day
Rattus norvegicus [30] = test: Antihypertensive activity against L-NAME treated renin transgenic Wistar rat cardiovascular disease model assessed as body weight gain at 3 mg/kg administered via oral gavage once daily for 21 days; assay type: functional, organism-based; details: time 21.0 day
Rattus norvegicus [31] = test: Antihypertensive activity in spontaneous hypertensive Wistar rat assessed as decrease in systolic blood pressure at 0.003 mg/kg, iv administered as bolus injection measured for 21 days by tail-cuff method (reference value: -12 mmHg); assay type: functional; details: time 21 day
Rattus norvegicus [32] = test: Antihypertensive activity in spontaneous hypertensive Wistar rat assessed as decrease in systolic blood pressure at 0.01 mg/kg, iv administered as bolus injection measured for 21 days by tail-cuff method (reference value: -12 mmHg); assay type: functional; details: time 21 day
Rattus norvegicus [33] = test: Antihypertensive activity in spontaneous hypertensive Wistar rat assessed as decrease in systolic blood pressure at 0.03 mg/kg, iv administered as bolus injection measured for 21 days by tail-cuff method (reference value: -12 mmHg); assay type: functional; details: time 21 day
Rattus norvegicus [34] = test: Antihypertensive activity in spontaneous hypertensive Wistar rat assessed as decrease in systolic blood pressure at 0.1 mg/kg, iv administered as bolus injection measured for 21 days by tail-cuff method (reference value: -12 mmHg); assay type: functional; details: time 21 day
Rattus norvegicus [35] = test: Antihypertensive activity in spontaneous hypertensive Wistar rat assessed as decrease in systolic blood pressure at 0.3 mg/kg, iv administered as bolus injection measured for 21 days by tail-cuff method (reference value: -12 mmHg); assay type: functional; details: time 21 day
Rattus norvegicus [36] = test: Antihypertensive activity in spontaneous hypertensive Wistar rat model assessed as reduction in blood pressure at 0.3 to 3.0 mg/kg, po measured after 2 hrs by radiotelemetry analysis; assay type: functional; set-up: scale not given: the % may be the effect or the level left; details: dose 0.3-3 mg/kg
Rattus norvegicus [37] = test: Antihypertensive activity in spontaneous hypertensive Wistar rat model assessed as reduction in blood pressure at 0.3 mg/kg, po measured after 24 hrs by radiotelemetry analysis; assay type: functional, organism-based
Rattus norvegicus [38] = test: Antihypertensive activity in spontaneous hypertensive Wistar rat model assessed as reduction in blood pressure at 1 mg/kg, po measured after 24 hrs by radiotelemetry analysis; assay type: functional, organism-based

MEC [1]: 0.01 µM
CLhep predicted [2]: 56.7 mL/min/kg
Compound: CCCC[C@H](CO)NC(=O)c1c(C)nc2c(OCc3c(F)cccc3F)cc(C)cn12

MEC [1]: 1 µM
CLhep predicted [2]: 51.7 mL/min/kg
Compound: CCCC[C@H](CO)NC(=O)c1c(C)nc2c(OCc3c(F)cccc3F)cc(C3CC3)cn12

MEC [1]: 0.03 µM
CLhep predicted [2]: 51.7 mL/min/kg
Compound: CCCC[C@H](CO)NC(=O)c1c(C)nc2c(OCc3c(F)cccc3F)cc(F)cn12

MEC [1]: 0.3 µM
CLhep predicted [2]: 13.3 mL/min/kg
Compound: CCCC[C@H](CO)NC(=O)c1cnc2c(OCc3c(F)cccc3F)cccn12

The remaining lines, values behind:

Compound: Cc1nc2c(OCc3c(F)cccc3F)cccn2c1C(=O)NC(CN)c1ccc(F)c(F)c1 (single isomer, unassigned; enantiomer B)
IC50 (Aorta): 625 nM
Activity (Rattus norvegicus [3]): Dose-Dependent Effect
Activity (Rattus norvegicus [4]): -12 mmHg
Activity (Rattus norvegicus [5]): -38 mmHg
Activity (Rattus norvegicus [6]): -96 mmHg
Activity (Rattus norvegicus [7]): Dose-Dependent Effect
Activity (Rattus norvegicus [8]): 8%
Activity (Rattus norvegicus [9]): 10%
Activity (Rattus norvegicus [10]): Active
Activity (Rattus norvegicus [11]): Active
Activity (Rattus norvegicus [12]): Dose-Dependent Effect
Activity (Rattus norvegicus [13]): Active
Activity (Rattus norvegicus [14]): 20%

Compound: CC[C@](C)(N)CNC(=O)c1c(C)nc2c(OCc3c(F)cccc3F)cc(C)cn12
Activity (Rattus norvegicus [15]): Active
Activity (Rattus norvegicus [16]): Active
Activity (Rattus norvegicus [17]): Active
Activity (Rattus norvegicus [18]): 1018 pmol/mL
Activity (Rattus norvegicus [19]): 2798 pmol/mL
Activity (Rattus norvegicus [20]): 4.03 g/kg
Activity (Rattus norvegicus [21]): 3.64 g/kg
Activity (Rattus norvegicus [22]): 284 pg/mL
Activity (Rattus norvegicus [23]): 97 pg/mL
Activity (Rattus norvegicus [24]): 3.72 g/kg
Activity (Rattus norvegicus [25]): 3.72 g/kg
Activity (Rattus norvegicus [26]): 44%
Activity (Rattus norvegicus [27]): 78%
Activity (Rattus norvegicus [28]): Active
Activity (Rattus norvegicus [29]): inactive
Activity (Rattus norvegicus [30]): Active
IC50 (Aorta): 27 nM
Activity (Rattus norvegicus [3]): Dose-Dependent Effect
Activity (Rattus norvegicus [4]): -86 mmHg
Activity (Rattus norvegicus [31]): -19 mmHg
Activity (Rattus norvegicus [32]): -22 mmHg
Activity (Rattus norvegicus [33]): -49 mmHg
Activity (Rattus norvegicus [34]): -70 mmHg
Activity (Rattus norvegicus [35]): -86 mmHg
Activity (Rattus norvegicus [12]): Dose-Dependent Effect
Activity (Rattus norvegicus [36]): 10%
Activity (Rattus norvegicus [37]): Active
Activity (Rattus norvegicus [38]): Active

Compound: CCCC[C@H](CO)NC(=O)c1c(C)nc2c(OCc3ccccc3)cccn12
MEC [1]: 1 µM
CLhep predicted [2]: 38.3 mL/min/kg

Compound: Cc1nc2c(OCC3CCC3)cccn2c1C(=O)NCCC1(O)CCCCC1
MEC [1]: 3 µM
